According to paper PMC6934184, “Selective DNA-PKcs inhibition extends the therapeutic index of localized radiotherapy and chemotherapy” (The Journal of Clinical Investigation, 2019):

Molecular target: T1, CASK (Homo sapiens, UniProt O14936)
T1 construct: purchased Thermo Fisher Scientific (Life Technologies) SelectScreen
Test: SelectScreen LanthaScreen
Format: binding
Settings: read-out: % displacement
In short: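 NU5455 was profiled across the SelectScreen Broad panel of kinase activity and binding assays. Z'LYTE reactions such as CSF1R ran at apparent Km ATP, while the Adapta CAMK1 assay used ATP listed as 10. Values are given as percent.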

T1 sequence (O14936 whole entry): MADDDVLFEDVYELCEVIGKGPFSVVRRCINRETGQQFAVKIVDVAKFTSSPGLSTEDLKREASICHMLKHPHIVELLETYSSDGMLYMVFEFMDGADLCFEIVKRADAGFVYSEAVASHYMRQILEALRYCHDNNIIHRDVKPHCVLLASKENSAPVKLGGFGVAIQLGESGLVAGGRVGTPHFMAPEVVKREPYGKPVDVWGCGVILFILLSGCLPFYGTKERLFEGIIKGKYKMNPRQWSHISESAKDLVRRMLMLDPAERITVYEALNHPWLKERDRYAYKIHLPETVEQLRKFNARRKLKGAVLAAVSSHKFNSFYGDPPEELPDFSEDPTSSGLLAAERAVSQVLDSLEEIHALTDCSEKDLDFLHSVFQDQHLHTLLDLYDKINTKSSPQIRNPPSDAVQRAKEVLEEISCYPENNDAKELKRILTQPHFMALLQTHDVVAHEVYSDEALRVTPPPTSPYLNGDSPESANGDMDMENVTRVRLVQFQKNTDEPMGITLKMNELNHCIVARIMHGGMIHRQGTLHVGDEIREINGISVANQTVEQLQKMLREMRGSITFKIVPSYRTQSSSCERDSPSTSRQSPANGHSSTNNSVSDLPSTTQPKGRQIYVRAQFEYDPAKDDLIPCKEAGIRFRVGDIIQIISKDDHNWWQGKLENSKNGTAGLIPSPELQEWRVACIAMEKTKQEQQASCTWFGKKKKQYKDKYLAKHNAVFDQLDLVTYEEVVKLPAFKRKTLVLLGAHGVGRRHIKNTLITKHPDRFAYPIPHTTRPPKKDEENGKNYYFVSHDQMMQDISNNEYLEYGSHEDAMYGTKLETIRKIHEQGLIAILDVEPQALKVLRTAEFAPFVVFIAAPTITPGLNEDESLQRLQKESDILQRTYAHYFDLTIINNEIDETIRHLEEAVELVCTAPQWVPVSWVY

CN(C(=O)CN1CCOCC1)c1ccc2sc3c(-c4cccc5c(=O)cc(N6CC7CCC(C6)O7)oc45)cccc3c2c1 [NU5455]
inhibition at 1 µM: -3.1%
